Results on 48 molecules are retold here after US6342503B1, “1N-alkyl-n-arylpyrimidinamines and derivatives thereof” (DuPont Pharmaceuticals Company, priority 1993, dated 2002).

In one assay the target is T1, CRF receptor (Rattus norvegicus, UniProt P35353).
T1 construct: 100 μl of membrane suspension as prepared above to give a total reaction volume of 300 μl; from tissue; host or cells: rat cerebral cortex membrane homogenate
T1 sequence (P35353 24-415): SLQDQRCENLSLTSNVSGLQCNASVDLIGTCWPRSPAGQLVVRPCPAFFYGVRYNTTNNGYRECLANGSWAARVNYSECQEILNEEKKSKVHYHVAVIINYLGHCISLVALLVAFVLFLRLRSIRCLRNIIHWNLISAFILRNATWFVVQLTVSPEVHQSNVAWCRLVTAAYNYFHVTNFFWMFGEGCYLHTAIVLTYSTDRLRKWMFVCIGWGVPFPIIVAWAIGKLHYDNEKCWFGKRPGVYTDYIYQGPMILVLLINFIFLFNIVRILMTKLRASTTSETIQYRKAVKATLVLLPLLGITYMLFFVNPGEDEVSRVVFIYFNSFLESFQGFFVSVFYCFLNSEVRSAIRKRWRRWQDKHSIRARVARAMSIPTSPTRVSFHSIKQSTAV
Put plainly: In vitro CRF receptor binding assay (competition with [125I] ovine CRF, rat cortex membranes). The conditions noted are these: competition with [125I] ovine CRF, 2 h at 22° C.; Ki classes; read-out: Inhibition Ki. The method, then: In vitro Receptor Binding Assay
Tissue Preparation: Male Sprague Dawley rats (180-200 g) were sacrificed by decapitation and the cortex was dissected on ice, frozen whole in liquid nitrogen and stored at −70° C. until use. On the day of assay, frozen tissue was weighed and homogenized in 20 volumes of ice cold buffer containing 50 mM Tris, 10 mM MgCl2, 2 mM EGTA, pH 7.0 at 22° C. using a Polytron (Brinkmann Instruments, Westbury, N.Y.; setting 6) for 20 s. The homogenate was centrifuged at 48,000× g for 10 min at 4° C. The supernatant was discarded, and the pellet was re-homogenized in the same volume of buffer and centrifuged at 48,000× g for 10 min at 4° C. The resulting pellet was resuspended in the above buffer to a final concentration of 20-40 mg original wet weight/mL and used in the assays described below.
CRF Receptor Binding: Receptor binding assays were carried out essentially as described by E. B. De Souza, J. Neurosci. […]
All assays were carried out at equilibrium for 2 h at 22° C. as described by E. B. De Souza, J. Neurosci. […] The reaction was terminated by centrifugation of the tubes in a Beckman microfuge for 5 min at 12,000× g. Aliquots of the supernatant were collected to determine the “free” radioligand concentration. The remaining supernatant was aspirated and the pellets washed gently with ice-cold PBS plus 0.01% Triton X-100; centrifuged again and monitored for bound radioactivity as described above. […] This program has the distinct advantage of fitting the raw experimental data on an untransformed coordinate system where errors are most likely to be normally distributed and uncorrelated with the independent variable. […] The parameters for the affinity constants (KD) and receptor densities (Bmax) are also provided along with statistics on the general “fit” of the estimated parameters to the raw data.
Competition Curve Analysis
The resulting pellets were surface washed twice by centrifugation with 1 mL of ice-cold phosphate buffered saline and 0.01% Triton X-100; the supernatants discarded and the pellets monitored for radioactivity at approximately 80% efficiency. The level of non-specific binding was defined in the presence of […] unlabeled rat/humanCRF (r/hCRF). Data from competition curves were analyzed by the program LIGAND. […] Routinely, the data were analyzed using a one- and two-site model comparing the “goodness of fit” between the models in order to accurately determine the Ki. Statistical analyses provided by LIGAND allowed the determination of whether a single-site or multiple-site model should be used.
In Table 17; the Ki values were determined using the assay conditions described above.
For the molecule `CCN(c1nc(C)cc(C)n1)c1ccc(C(C)=NOC)cc1S(C)(=O)=O` [compound 179, N-(2-methylsulfonyl-4-methoxyiminoethylphenyl)-N-ethyl-4,6-dimethyl-2-pyrimidinamine], the Ki was 2000 to 10000 nM.

With “N-ethyl-N-(2-bromo-4-(2-methoxyethyl)phenyl)4-morpholino-6-methyl-2-pyrimidinamine [compound 29]”, the Ki was < 500 nM.

On to `CCN(c1nc(C)cc(N2CCOCC2)n1)c1ccc(C(C)C)cc1Br` [compound 16, N-(2-bromo-4-(1-methylethyl)phenyl)-N-ethyl-4-morpholino-6-methyl-2-pymidinamine], for which the Ki is < 500 nM.

`CCN(c1nc(C)cc(C(=O)N2CCN(C)CC2)n1)c1ccc(C(C)C)cc1Br` [compound 63, N-(2-bromo-4-(1-methylethyl)phenyl)-N-ethyl-4-methyl-6-(4-methylpiperazinylcarbonyl)-2-pyrimidinamine]: the Ki lay within 2000 to 10000 nM.

The assay is the same for the next values; noted with them: read-out: Inhibition Ki.
In the case of `CCN(c1nc(C)nc(N(C)C)n1)c1c(Br)cc(OC)cc1OC` [compound 238], the Ki was < 500 nM.

Regarding `Cc1cc(-c2ccccc2)c2c(C#N)cn(-c3ccc(C(C)C)cc3Br)c2n1` [Example 256], the Ki was < 500 nM.

Consider `CCN(c1cc(OC)nc(OC)n1)c1ccc(C(C)C)cc1Br` [compound 130], for which the Ki lay in the range of 501 to 2000 nM.

Turning to `Cc1cc(C)nc(N2CCCSc3cc(C(C)C)ccc32)n1` [compound 173], the Ki lay within 501 to 2000 nM.

For the molecule `CCCCc1ccc(N(CC)c2nc(C)cc(C)n2)c(Br)c1` [compound 19], the Ki is < 500 nM.

As for `CCN(c1nc(C)cc(N(C)CCO)n1)c1ccc(C(C)C)cc1Br` [compound 50, N-(2-Bromo-4-(1-methylethyl)phenyl)-N-ethyl-4-methyl-6-(N-methyl-2-hydroxyethlamino)-2-pyrimidinamine], the Ki is < 500 nM.

With `CCN(c1nc(C)cc(COc2ccccc2)n1)c1ccc(C(C)C)cc1Br` [compound 209], the Ki is < 500 nM.

Turning to `CCN(c1nc(C)cc(C(=O)N2CCN(c3ccccn3)CC2)n1)c1ccc(C(C)C)cc1Br` [compound 274], the Ki fell in the range of 2000 to 10000 nM.

Take `Cc1cc(C)nc(N(C)c2ccc(I)cc2)n1` [compound 52]: the Ki fell in the range of 2000 to 10000 nM.

Turning to `CCN(c1nc(C)cc(C)n1)c1ccc(COC)cc1I` [compound 172, N-(2-iodo-4-methoxymethylphenyl)-N-ethyl-4,6-dimethyl-2-pyrimidinamine], the Ki is < 500 nM.

Take `Cc1cc(C)nc(N(C)c2ccc(C(C)(C)C)cc2Br)n1` [compound 11]: the Ki is < 500 nM.

With `CCN(c1nc(C)cc(CN2CCN(c3ncccn3)CC2)n1)c1ccc(C(C)C)cc1Br` [compound 281], the Ki was < 500 nM.

For the molecule `CCN(c1nc(C)cc(C(C)O)n1)c1ccc(C(C)C)cc1Br` (stereo not drawn) [compound 296], the Ki was < 500 nM.

Regarding `Cc1cc(C)nc(N(CC#N)c2ccc(C(C)C)cc2Br)n1` [compound 32], the Ki is < 500 nM.

On to `CCN(c1nc(C)cc(COCc2cccnc2)n1)c1ccc(C(C)C)cc1Br` [compound 216], for which the Ki was < 500 nM.

As for `CCN(c1nc(C)nc(OCc2ccccc2)n1)c1ccc(C(C)C)cc1Br` [compound 242, N-[2-bromo-4(1-methylethyl)phenyl]-N-ethyl-4-methyl-6-benzyloxy-1,3,5 triazin-2-amine], the Ki was 501 to 2000 nM.

Take `CCN(c1nc(C)cc(COc2cccc(N(C)C)c2)n1)c1ccc(C(C)C)cc1Br` [compound 215]: the Ki lay within 501 to 2000 nM.

On to `CCN(c1nc(C)cc(CN2CCN(c3ccccc3OC)CC2)n1)c1ccc(C(C)C)cc1Br` [compound 275], for which the Ki was < 500 nM.

Take `CCN(c1nccc(C)n1)c1ccc(C(C)C)cc1Br` [compound 49, N-(2-Bromo-4-(1-methylethyl)phenyl)-N-ethyl-4-methyl-2-pymidinamine]: the Ki was in the range of 2000 to 10000 nM.

Regarding `CCc1ccc(N(CC)c2nc(C)cc(C)n2)c(SC)c1` [compound 182, N-(4-ethyl-2-methylthiophenyl)-N-ethyl-4,6-dimethyl-2-pyrimidinamine], the Ki was < 500 nM.

Take `CCN(c1nc(C)cc(C(O)c2ccco2)n1)c1ccc(C(C)C)cc1Br` (stereo not drawn) [compound 291]: the Ki is < 500 nM.

As for `CCc1ccc(N(C)c2nc(C)cc(C)n2)c(Br)c1` [compound 9, N-(2-bromo-4-ethylphenyl)-N-methyl-4,6-dimethyl-2-pypimidinamine], the Ki was < 500 nM.

Regarding `CCN(c1nc(C)cc(COCCO)n1)c1ccc(C(C)C)cc1Br` [compound 225, N-(2-Bromo-4-(1-methylethyl)phenyl)-N-ethyl-4-hydroxyethoxymethyl-6-methyl-2-pyrimidinamine], the Ki is < 500 nM.

Consider `CCN(c1nc(C)cc(C(=O)c2c[nH]c3ccccc23)n1)c1ccc(C(C)C)cc1Br` [compound 283], for which the Ki lay in the range of 2000 to 10000 nM.

On to `CCN(c1nc(C)cc(SC)n1)c1ccc(C(C)C)cc1Br` [compound 140, N-(2-bromo-4-(1-methylethyl)phenyl)-N-ethyl-4-methyl-6-(thiomethyl)-2-pyrimidinamine], for which the inhibition constant (Ki) was < 500 nM.

Take `CCN(c1nc(C)cc(CN2CCN(c3cnccn3)CC2)n1)c1ccc(C(C)C)cc1Br` [compound 278]: the Ki was < 500 nM.

As to `CCN(c1nc(C)cc(C)n1)c1ccc(C(C)OC)cc1SC` (stereo not drawn) [compound 189, N-(4-(1-methoxyethyl)-2-methylthiophenyl)-N-ethyl-4,6-dimethyl-2-pyrimidinamine], the Ki is < 500 nM.

For `COc1ccc(N(C)c2nc(C)cc(C)n2)c(OC)c1` [compound 2], the Ki lay within 501 to 2000 nM.

Consider `CCN(c1nc(C)nc(N2CCCCC2)n1)c1ccc(C(C)C)cc1I` [compound 137], for which the Ki is < 500 nM.

`CCSc1cc(C(C)C)ccc1N(CC)c1nc(C)cc(C)n1` [compound 175, N-(2-ethylthio-4-(1-methylethyl)phenyl)-N-ethyl-4,6dimethyl-2-pyrimidinamine]: the Ki is 501 to 2000 nM.

As to `C=CCN(c1nc(C)cc(C)n1)c1ccccc1Br` [compound 3], the Ki fell in the range of 501 to 2000 nM.

Take `CCN(c1nc(C)cc(OCCCS(C)(=O)=O)n1)c1ccc(C(C)C)cc1Br` [compound 156]: the inhibitory constant (Ki) is < 500 nM.

For `CCN(c1nc(C)nc(N2CCOCC2)n1)c1c(OC)cc(OC)cc1OC` [compound 239], the Ki is < 500 nM.

Take `CCN(c1nc(C)cc(N)n1)c1ccc(C(C)C)cc1Br` [compound 155]: the Ki is < 500 nM.

With `C=CCN(c1nc(C)cc(N2CCOCC2)n1)c1ccc(C(C)C)cc1Br` [compound 17], the Ki is < 500 nM.

In the case of `Cc1cc(C)nc(N(C)c2ccc(C(C)C)cc2)n1` [compound 66], the Ki lay within 2000 to 10000 nM.

With `CCN(c1nc(C)nc(N2CCSCC2)n1)c1ccc(C(C)C)cc1I` [compound 135], the Ki is < 500 nM.

As for `Cc1cc(C)nc(N(C)c2ccccc2I)n1` [compound 53], the Ki fell in the range of 2000 to 10000 nM.

Consider `CCN(c1nc(C)cc(OCCN(C)C)n1)c1ccc(C(C)C)cc1Br` [compound 161], for which the Ki was < 500 nM.

As to `CCN(c1nc(C)cc(N2CCSCC2)n1)c1ccc(C(C)C)cc1I` [compound 73, N-ethyl-N-(2-iodo4-(1-methylethyl)phenyl)4-thiomorpholino-6-methyl-2-pyrimidinamine], the Ki is < 500 nM.

As to `CCOC(=O)C(C(=O)OCC)c1nc(C)nc(N(CC)c2ccc(C(C)C)cc2Br)n1` [compound 246], the Ki is < 500 nM.

Turning to `CCN(c1nc(C)cc(COc2ncccn2)n1)c1ccc(C(C)C)cc1Br` [compound 213], the Ki was < 500 nM.

On to `CCN(c1nc(C)cc(OCCC[S+](C)[O-])n1)c1ccc(C(C)C)cc1Br` (stereo not drawn) [compound 162], for which the Ki is < 500 nM.

In the case of `CCN(c1nc(C)cc(Cl)n1)c1ccc(C(C)C)cc1I` [compound 167, N-(2-iodo4-(1-methylethyl)phenyl)-N-ethyl-4-chloro-6-methyl-2-pyrimidinamine], the Ki is < 500 nM.
